Results taken from the NIST ThermoML archive (doi:10.1021/je0503251).

Settings: Liquid, Closed cell (Static) method

FC(F)CC(F)(F)F [1,1,1,3,3-pentafluoropropane]
Settings	vapor or sublimation pressure [kPa]
253.12 K	19.34
258.16 K	25.37
263.13 K	32.79
268.12 K	41.88
273.12 K	52.91
278.12 K	66.17
283.15 K	82.07
285.14 K	89.11
288.12 K	100.56
293.09 K	122.2
295.08 K	131.93
298.06 K	147.46
303.06 K	177.01
305.05 K	190.2
308.05 K	210.95
310.09 K	225.91
313.1 K	249.94
315.08 K	266.8
318.12 K	294.26
320.17 K	312.44
323.16 K	343.03
325.16 K	364.63
328.16 K	398.98
330.16 K	423.22
333.16 K	461.65
338.16 K	531.78
343.16 K	609.29
345.16 K	642.58
348.16 K	695.02
353.16 K	789.45
358.16 K	893.28
363.16 K	1007
368.13 K	1130.3
373.13 K	1265.7
378.16 K	1413.6
383.15 K	1573.3
388.14 K	1745.4
393.14 K	1932.2
398.12 K	2133.2
403.07 K	2348.2

COCOC [dimethoxymethane]
Settings	vapor or sublimation pressure [kPa]
283.13 K	27.73
285.13 K	30.39
288.11 K	34.73
293.07 K	43.08
295.07 K	46.83
298.07 K	52.94
300.07 K	57.14
303.05 K	64.26
305.05 K	69.42
308.05 K	77.74
310.07 K	83.8
313.16 K	93.85
318.13 K	111.95
323.17 K	132.98
325.18 K	142.06
328.17 K	156.44
330.17 K	166.67
333.17 K	182.96
335.17 K	194.47
338.16 K	212.79
340.16 K	225.73
343.16 K	246.24
345.16 K	260.68
348.16 K	283.65
353.16 K	325.16
358.16 K	371.53
363.16 K	421.82
368.16 K	477.61
373.15 K	538.51
378.16 K	605.33
383.13 K	677.68
388.15 K	757.05
393.16 K	842.82
398.15 K	935.48
